According to patent US11000033B2, “Ketone or oxime compound, and herbicide” (NISSAN CHEMICAL CORPORATION, priority 2014, dated 2021):

Tests used:
Type in all cases: in vivo
Alopecurus myosuroides = assay: Test Example 5: herbicidal effect by foliage application, plastic box (symbol J); settings: 320 g/ha, 3 weeks after application
Summary of the method: (§1)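 Post-emergence spray; diluvial soil (sterilized), ~1.5 cm seed cover; greenhouse 25–30° C; 14-day-old plants; water-diluted emulsion at predetermined dose; visual score at 3 wk post-treatment.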

Apera spica-venti = assay: Test Example 4: herbicidal effect by soil treatment (symbol L); settings: application herbicide amount 320 g/ha
Summary of the method: (§2)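 Seeds were sown in sterilized diluvial soil, covered with about 1.5 cm of soil, and the soil surface was sprayed with a water-diluted emulsion of the compound at a predetermined rate. Plants grew in a greenhouse at 25° C. to 30° C.; effects were scored visually 3 weeks after application.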

corn [1] = assay: Test Example 4: effect on crop by soil treatment (symbol c); settings: for c: corn, effect on crop grade: application herbicide amount 320 g/ha; for c: corn, effect grade on crop: 320 g/ha
Summary of the method: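 Sterilized diluvial soil, spot sowing, ~1.5 cm soil cover; greenhouse 25–30° C.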

Abutilon theophrasti = assay: Test Example 4: herbicidal effect by soil treatment (symbol M)
Summary of the method: as §2

transplanted rice plant = assay: Test Example 1: effect on crop, application before weed generation in submerged conditions (symbol a); settings: application herbicide amount 320 g/ha
Summary of the method: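 Rice at 2.5 leaf stage transplanted into submerged soil (4 cm depth) sown with three weed species; herbicide applied before weed emergence.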

[2] = tested on: Echinochloa crus-galli var. crus-galli; assay: Test Example 4: herbicidal effect by soil treatment (symbol H)
Summary of the method: as §2

Cyperus difformis = assay: Test Example 3: herbicidal effect by foliage application, Wagner pot (symbol E); settings: application herbicide amount 320 g/ha
Summary of the method: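 Alluvial soil was flooded to a depth of 0.1–0.5 cm, seeded with the weeds and rice, and kept in a greenhouse at 25–30 °C. After 14 days of growth, the foliage received a small-sprayer application of emulsion diluted to the intended rate; injury was rated at 3 weeks.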

soybean = assay: Test Example 5: effect on crop by foliage application, plastic box (symbol d); settings: 320 g/ha, 3 weeks after application
Summary of the method: (§3)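 Crop seed is sown alongside grass and broadleaf weed species in spots in sterilized diluvial soil, then covered to a depth of about 1.5 cm. Plants grow in a greenhouse kept at 25° C. to 30° C.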

rice = assay: Test Example 4: effect on crop by soil treatment (symbol b); settings: for b: directly sowed rice plant, effect on crop grade: application herbicide amount 320 g/ha; for b: directly sowed rice plant, effect grade on crop: 320 g/ha
Summary of the method: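 Soil-treatment setup: crop and weed seeds were spot-sown into sterilized diluvial soil, then buried beneath approximately 1.5 cm of it, and the boxes were housed in a 25–30° C. greenhouse.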

Scirpus juncoides = assay: Test Example 2: herbicidal activity, application during weed generation in submerged conditions (symbol B); settings: Table 23; application herbicide amount 320 g/ha; grade 0-5 by criteria of Test Example 1
Summary of the method: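 Weeds emerging under flooded conditions were treated with compound formulated as an emulsion and diluted with water to the intended herbicide amount, poured onto the surface of 4 cm standing water. Seeds had been co-sown in alluvial soil; plants grew at 25° C. to 30° C. and were assessed after 3 weeks.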

[3] = tested on: Echinochloa crus-galli var. crus-galli; assay: Test Example 5: herbicidal effect by foliage application, plastic box (symbol H); settings: 320 g/ha, 3 weeks after application
Summary of the method: as §1

corn [4] = assay: Test Example 5: effect on crop by foliage application, plastic box (symbol c); settings: 320 g/ha, 3 weeks after application
Summary of the method: as §3

beet = assay: Test Example 5: effect on crop by foliage application, plastic box (symbol f); settings: 320 g/ha, 3 weeks after application
Summary of the method: as §3

Stellaria media = assay: Test Example 4: herbicidal effect by soil treatment (symbol P); settings: 320 g/ha
Summary of the method: as §2

[5] = application herbicide amount 320 g/ha

SMILES | J: Alopecurus myosuroides, herbicidal effect grade (Alopecurus myosuroides) | L: Apera spica-venti, herbicidal effect grade (Apera spica-venti) | c: corn, effect on crop grade (corn [1]) | M: Abutilon theophrasti, herbicidal effect grade (Abutilon theophrasti; [5]) | Effect grade on crop, a: transplanted rice plant (transplanted rice plant) | H: Echinochloa crus-galli var. crus-galli, herbicidal effect grade [2, 5] | herbicidal effect on E, grade 0-5 (Cyperus difformis) | d: soybean, effect on crop grade (soybean) | b: directly sowed rice plant, effect on crop grade (rice) | Herbicidal effect grade, B: Scirpus juncoides (Scirpus juncoides) | H: Echinochloa crus-galli var. crus-galli, herbicidal effect grade [3] | c: corn, effect on crop grade (corn [4]) | f: beet, effect on crop grade (beet) | c: corn, effect grade on crop (corn [1]) | M: Abutilon theophrasti, herbicidal effect grade (Abutilon theophrasti; 320 g/ha) | H: Echinochloa crus-galli var. crus-galli, herbicidal effect grade ([2]; 320 g/ha) | P: Stellaria media, herbicidal effect grade (Stellaria media) | b: directly sowed rice plant, effect grade on crop (rice)
CCC(=O)CCC1CC(O)=C(c2c(C)cc(C)cc2C)C1=O (centres unmarked) [5-001] | 5 (Herbicidal ratio of 90% or more (almost completely withered)) | 5 (Herbicidal ratio of 90% or more (almost completely withered)) | 0 (Herbicidal ratio of 5% or lower (almost no effect)) | 0 (Herbicidal ratio of 5% or lower (almost no effect)) | 0 (Herbicidal ratio of 5% or lower (almost no effect)) | 1 (Herbicidal ratio of 5% or higher and lower than 20%) | 0 (Herbicidal ratio of 5% or lower (almost no effect)) | 0 (Herbicidal ratio of 5% or lower (almost no effect)) | 5 (Herbicidal ratio of 90% or more (almost completely withered)) | 0 (Herbicidal ratio of 5% or lower (almost no effect)) | 3 (Herbicidal ratio of 40% or higher and lower than 70%) | 2 (Herbicidal ratio of 20% or higher and lower than 40%) | – | – | – | – | – | –
Cc1cc(C)c(C2=C(O)CC(CC(=O)CC3CC3)C2=O)c(C)c1 (centres unmarked) [2-026] | 4 (Herbicidal ratio of 70% or higher and lower than 90%) | 2 (Herbicidal ratio of 20% or higher and lower than 40%) | 1 (Herbicidal ratio of 5% or higher and lower than 20%) | 0 (Herbicidal ratio of 5% or lower (almost no effect)) | 4 (Herbicidal ratio of 70% or higher and lower than 90%) | 5 (Herbicidal ratio of 90% or more (almost completely withered)) | 5 (Herbicidal ratio of 90% or more (almost completely withered)) | 0 (Herbicidal ratio of 5% or lower (almost no effect)) | 5 (Herbicidal ratio of 90% or more (almost completely withered)) | 3 (Herbicidal ratio of 40% or higher and lower than 70%) | 4 (Herbicidal ratio of 70% or higher and lower than 90%) | 2 (Herbicidal ratio of 20% or higher and lower than 40%) | 0 (Herbicidal ratio of 5% or lower (almost no effect)) | – | – | – | – | –
CON=C(C)CC1CC(OS(=O)(=O)c2ccc(C)cc2)=C(c2c(C)cc(C)cc2C)C1=O (centres unmarked) [1-161] | 5 (Herbicidal ratio of 90% or more (almost completely withered)) | – | – | – | 4 (Herbicidal ratio of 70% or higher and lower than 90%) | – | 4 (Herbicidal ratio of 70% or higher and lower than 90%) | 0 (Herbicidal ratio of 5% or lower (almost no effect)) | – | 4 (Herbicidal ratio of 70% or higher and lower than 90%) | 4 (Herbicidal ratio of 70% or higher and lower than 90%) | 1 (Herbicidal ratio of 5% or higher and lower than 20%) | 0 (Herbicidal ratio of 5% or lower (almost no effect)) | 0 (Herbicidal ratio of 5% or lower (almost no effect)) | 0 (Herbicidal ratio of 5% or lower (almost no effect)) | 0 (Herbicidal ratio of 5% or lower (almost no effect)) | 0 (Herbicidal ratio of 5% or lower (almost no effect)) | 3 (Herbicidal ratio of 40% or higher and lower than 70%)
CON=C(C)CC1CC(OC(=O)Cc2ccc(OC)cc2)=C(c2c(C)cc(C)cc2C)C1=O (centres unmarked) [1-156] | 5 (Herbicidal ratio of 90% or more (almost completely withered)) | – | – | – | 5 (Herbicidal ratio of 90% or more (almost completely withered)) | – | 5 (Herbicidal ratio of 90% or more (almost completely withered)) | 3 (Herbicidal ratio of 40% or higher and lower than 70%) | – | 5 (Herbicidal ratio of 90% or more (almost completely withered)) | 5 (Herbicidal ratio of 90% or more (almost completely withered)) | 4 (Herbicidal ratio of 70% or higher and lower than 90%) | 3 (Herbicidal ratio of 40% or higher and lower than 70%) | 1 (Herbicidal ratio of 5% or higher and lower than 20%) | 5 (Herbicidal ratio of 90% or more (almost completely withered)) | 5 (Herbicidal ratio of 90% or more (almost completely withered)) | 2 (Herbicidal ratio of 20% or higher and lower than 40%) | 5 (Herbicidal ratio of 90% or more (almost completely withered))
CON=C(C)CC1CC(OC(=O)N(C)c2ccccc2)=C(c2c(C)cc(C)cc2C)C1=O (centres unmarked) [1-159] | 5 (Herbicidal ratio of 90% or more (almost completely withered)) | – | – | – | 1 (Herbicidal ratio of 5% or higher and lower than 20%) | – | 4 (Herbicidal ratio of 70% or higher and lower than 90%) | 1 (Herbicidal ratio of 5% or higher and lower than 20%) | – | 1 (Herbicidal ratio of 5% or higher and lower than 20%) | 4 (Herbicidal ratio of 70% or higher and lower than 90%) | 0 (Herbicidal ratio of 5% or lower (almost no effect)) | 2 (Herbicidal ratio of 20% or higher and lower than 40%) | 0 (Herbicidal ratio of 5% or lower (almost no effect)) | 0 (Herbicidal ratio of 5% or lower (almost no effect)) | 3 (Herbicidal ratio of 40% or higher and lower than 70%) | 0 (Herbicidal ratio of 5% or lower (almost no effect)) | 3 (Herbicidal ratio of 40% or higher and lower than 70%)
CON=C(C)CC1CC(OC(=O)c2ccc(S(C)(=O)=O)c(C(=O)OC)c2Cl)=C(c2c(C)cc(C)cc2C)C1=O (centres unmarked) [1-162] | 5 (Herbicidal ratio of 90% or more (almost completely withered)) | – | – | – | 5 (Herbicidal ratio of 90% or more (almost completely withered)) | – | 5 (Herbicidal ratio of 90% or more (almost completely withered)) | 2 (Herbicidal ratio of 20% or higher and lower than 40%) | – | 1 (Herbicidal ratio of 5% or higher and lower than 20%) | 5 (Herbicidal ratio of 90% or more (almost completely withered)) | 4 (Herbicidal ratio of 70% or higher and lower than 90%) | 3 (Herbicidal ratio of 40% or higher and lower than 70%) | 2 (Herbicidal ratio of 20% or higher and lower than 40%) | 5 (Herbicidal ratio of 90% or more (almost completely withered)) | 5 (Herbicidal ratio of 90% or more (almost completely withered)) | 0 (Herbicidal ratio of 5% or lower (almost no effect)) | 5 (Herbicidal ratio of 90% or more (almost completely withered))
